Laboratory results taken from ChEMBL document CHEMBL1126912 (J Med Chem, 1993).

Tests used:
[1] = biological target: T1, Muscarinic acetylcholine receptor M2 (Homo sapiens, UniProt P08172); assay: Antagonistic activity measured in isolated guinea pig left atrium (M2 receptor); assay type: functional, tissue-based, Cavia porcellus, Cardiac atrium; conditions: target entry is the homologue from another species; read-out: pA2 (converted)
T1 sequence (P08172 whole entry): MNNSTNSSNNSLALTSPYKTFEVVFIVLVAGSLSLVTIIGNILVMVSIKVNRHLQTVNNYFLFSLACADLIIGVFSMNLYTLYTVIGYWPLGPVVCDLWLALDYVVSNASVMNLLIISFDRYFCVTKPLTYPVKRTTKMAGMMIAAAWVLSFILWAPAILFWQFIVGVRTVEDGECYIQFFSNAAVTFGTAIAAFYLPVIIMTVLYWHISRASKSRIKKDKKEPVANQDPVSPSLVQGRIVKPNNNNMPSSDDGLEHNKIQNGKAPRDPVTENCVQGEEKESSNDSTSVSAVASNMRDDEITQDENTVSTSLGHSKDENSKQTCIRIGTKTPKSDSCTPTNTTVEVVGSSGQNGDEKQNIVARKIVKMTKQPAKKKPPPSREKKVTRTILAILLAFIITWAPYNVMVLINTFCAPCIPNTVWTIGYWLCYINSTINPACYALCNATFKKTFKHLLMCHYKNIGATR

[2] = biological target: Muscarinic acetylcholine receptor M3 (Cavia porcellus, UniProt Q8VH26); assay: Antagonistic activity measured in isolated guinea pig […] (M3 receptor); assay type: functional, tissue-based; conditions: read-out: pA2 (converted)
Sequence of Muscarinic acetylcholine receptor M3 (Cavia porcellus, UniProt Q8VH26) (Q8VH26 whole entry): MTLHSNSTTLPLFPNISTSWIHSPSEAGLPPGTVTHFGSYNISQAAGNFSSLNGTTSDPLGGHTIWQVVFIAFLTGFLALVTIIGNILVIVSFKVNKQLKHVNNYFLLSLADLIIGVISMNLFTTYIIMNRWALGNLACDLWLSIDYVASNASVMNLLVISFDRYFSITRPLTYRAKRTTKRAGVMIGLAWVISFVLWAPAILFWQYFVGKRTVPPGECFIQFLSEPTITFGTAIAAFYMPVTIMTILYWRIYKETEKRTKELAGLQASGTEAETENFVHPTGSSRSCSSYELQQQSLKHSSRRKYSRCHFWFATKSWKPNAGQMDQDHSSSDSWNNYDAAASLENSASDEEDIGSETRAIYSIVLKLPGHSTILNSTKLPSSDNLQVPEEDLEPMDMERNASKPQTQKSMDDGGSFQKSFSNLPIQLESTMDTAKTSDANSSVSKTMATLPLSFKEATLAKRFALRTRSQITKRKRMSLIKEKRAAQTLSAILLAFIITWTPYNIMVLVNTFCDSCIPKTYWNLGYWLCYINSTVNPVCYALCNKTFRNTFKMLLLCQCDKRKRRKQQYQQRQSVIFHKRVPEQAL

[3] = biological target: Muscarinic acetylcholine receptor M3 (Rattus norvegicus, UniProt P08483); assay: Affinity constant measured against M3 muscarinic receptor in rat submaxillary gland; assay type: tissue-based
Sequence of Muscarinic acetylcholine receptor M3 (Rattus norvegicus, UniProt P08483) (P08483 whole entry): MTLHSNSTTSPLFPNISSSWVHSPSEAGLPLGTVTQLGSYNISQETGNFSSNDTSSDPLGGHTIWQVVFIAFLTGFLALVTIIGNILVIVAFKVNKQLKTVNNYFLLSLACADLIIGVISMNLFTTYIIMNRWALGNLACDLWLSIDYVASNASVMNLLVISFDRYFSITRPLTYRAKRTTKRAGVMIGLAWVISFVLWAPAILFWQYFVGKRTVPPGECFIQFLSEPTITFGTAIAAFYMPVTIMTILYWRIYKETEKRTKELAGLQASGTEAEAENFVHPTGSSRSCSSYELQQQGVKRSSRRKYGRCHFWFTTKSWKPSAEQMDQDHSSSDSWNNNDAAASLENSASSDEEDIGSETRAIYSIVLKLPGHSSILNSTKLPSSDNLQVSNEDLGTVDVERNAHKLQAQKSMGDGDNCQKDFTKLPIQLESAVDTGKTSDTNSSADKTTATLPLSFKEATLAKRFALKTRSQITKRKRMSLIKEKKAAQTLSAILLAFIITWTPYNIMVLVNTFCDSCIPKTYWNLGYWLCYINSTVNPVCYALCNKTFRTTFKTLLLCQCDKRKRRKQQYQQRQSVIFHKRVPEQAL

[4] = biological target: T2, Muscarinic acetylcholine receptor M4 (Rattus norvegicus, UniProt P08485); assay: Affinity constant measured against M4 muscarinic receptor rat NG108-15 cells; assay type: cell-based
T2 sequence (P08485 whole entry): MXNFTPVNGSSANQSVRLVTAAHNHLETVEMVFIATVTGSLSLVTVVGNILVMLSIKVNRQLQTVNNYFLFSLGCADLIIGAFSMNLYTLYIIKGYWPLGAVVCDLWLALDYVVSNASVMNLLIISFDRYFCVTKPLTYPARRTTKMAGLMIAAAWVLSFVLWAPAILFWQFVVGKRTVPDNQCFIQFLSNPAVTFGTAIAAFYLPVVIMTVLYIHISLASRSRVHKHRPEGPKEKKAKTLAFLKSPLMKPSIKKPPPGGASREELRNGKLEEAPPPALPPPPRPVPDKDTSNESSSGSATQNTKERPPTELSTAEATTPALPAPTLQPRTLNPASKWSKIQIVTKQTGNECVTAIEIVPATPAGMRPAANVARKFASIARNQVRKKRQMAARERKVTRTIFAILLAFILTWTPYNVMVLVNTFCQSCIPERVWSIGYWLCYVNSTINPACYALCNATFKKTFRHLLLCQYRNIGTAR

[5] = biological target: T3, Muscarinic acetylcholine receptor M1 (Rattus norvegicus, UniProt P08482); assay: Affinity constant measured against M1 muscarinic receptor in rat cortex
T3 sequence (P08482 whole entry): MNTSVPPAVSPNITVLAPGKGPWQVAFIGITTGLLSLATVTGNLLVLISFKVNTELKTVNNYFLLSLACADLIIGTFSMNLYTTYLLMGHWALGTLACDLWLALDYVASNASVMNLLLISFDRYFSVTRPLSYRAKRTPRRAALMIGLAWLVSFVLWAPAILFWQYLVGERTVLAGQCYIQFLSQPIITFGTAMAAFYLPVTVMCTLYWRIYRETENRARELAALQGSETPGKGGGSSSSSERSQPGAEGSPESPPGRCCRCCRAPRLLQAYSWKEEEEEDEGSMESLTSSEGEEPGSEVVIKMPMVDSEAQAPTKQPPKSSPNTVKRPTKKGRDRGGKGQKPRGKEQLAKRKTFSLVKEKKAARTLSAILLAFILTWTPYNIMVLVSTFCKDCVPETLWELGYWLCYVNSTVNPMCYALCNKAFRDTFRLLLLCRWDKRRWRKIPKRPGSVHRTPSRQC

[6] = test system: Muscarinic acetylcholine receptors M2 & M3 (Cavia porcellus); assay: Selectivity ratio between atrium (M2) and ileum (M3) was determined

| Kb [2] [nM] | Ki [3] [nM] | Ki [4] [nM] | Structure (SMILES) | Kb [1] [nM] | Ki [5] [nM] | Selectivity ratio [6] |
| --- | --- | --- | --- | --- | --- | --- |
| 126 |  |  | CN(CCCCCCCCN(C)CCCCCCNCC(=O)N1c2ccccc2C(=O)Nc2cccnc21)CCCCCCNCC(=O)N1c2ccccc2C(=O)Nc2cccnc21 | 0.724 |  |  |
| 479 | 1100 | 26.3 | COc1ccccc1CNCCCCCCNCCCCCCCCNCCCCCCNCc1ccccc1OC [METHOCTRAMINE] |  |  |  |

Continued, molecule first:

| Structure (SMILES) | Kb [2] [nM] | Ki [3] [nM] | Ki [4] [nM] | Kb [1] [nM] | Ki [5] [nM] | Selectivity ratio [6] |
| --- | --- | --- | --- | --- | --- | --- |
| CCN(CC)CCCCC1CCN(CC(=O)N2c3ccccc3C(=O)Nc3cccnc32)CC1 | 251 | 158 | 10 |  | 25.1 |  |
| COc1ccccc1CNCCCCCCN(C)CCCCCCCCN(C)CCCCCCNCc1ccccc1OC | 603 |  |  | 12.6 |  | 48 |
| CN(CCCCCCCCN(C)CCCCCCN(CC(=O)N1c2ccccc2C(=O)Nc2cccnc21)CC(=O)N1c2ccccc2C(=O)Nc2cccnc21)CCCCCCNCC(=O)N1c2ccccc2C(=O)Nc2cccnc21 [TRIPITRAMINE] | 282 | 646 | 11.7 |  | 23.4 |  |
